Measured values from patent publication US4419123A, “Herbicidal 4-trifluoromethyl-3'-carbon-substituted-4'-substituted diphenyl ethers” (Rohm and Haas Company, priority 1981, dated 1983).

Tests used:
[1] = Preemergence herbicidal activity (% control) against dicot weeds; settings: pre-emergence, 336 h; for activity at 4483.4 g/ha: read-out: Herbicidal activity (% control), preemergence, dicots, 4 lb./A., average, about two weeks after application; for activity at 2241.7 g/ha: read-out: Herbicidal activity (% control), preemergence, dicots, 2 lb./A., average, about two weeks after application; for activity at 11208.5 g/ha: read-out: Herbicidal activity (% control), preemergence, dicots, 10 lb./A., average, about two weeks after application
[2] = Preemergence herbicidal activity (% control) against monocot weeds; type: in vivo; settings: pre-emergence, 336 h, average, about two weeks after application, read-out: Herbicidal activity (% control), preemergence, monocots; for activity at 2241.7 g/ha: 2 lb./A.; for activity at 4483.4 g/ha: 4 lb./A.; for activity at 11208.5 g/ha: 10 lb./A.
From the text: (§1) barnyardgrass (Echinochloa crusgalli) crabgrass (Digitaria spp.) nutsedge (Cyperus esculentus)
(§2) At 2 and 4 pounds per acre:
(§3) **Bermudagrass (Cynodon dactylon)
(§4) *downy brome (Bromus tectorum) foxtail (Setaria faberii)
(§5) Johnsongrass (Sorghum halepense) […]
(§6) quackgrass (Agropyron repens)
(§7) *ryegrass (Lolium perenne)
(§8) *wild oats (Avena factua)
(§9) *yellow millet (Panicum miliaceum)
(§10) The following test procedure is employed.

[3] = Postemergence herbicidal activity (% control) against monocot weeds; type: in vivo; settings: post-emergence, 336 h, average, about two weeks after application, read-out: Herbicidal activity (% control), postemergence, monocots; for activity at 2241.7 g/ha: 2 lb./A.; for activity at 4483.4 g/ha: 4 lb./A.; for activity at 11208.5 g/ha: 10 lb./A.
From the text: as §1, §2, §3, §4, §5, §6, §7, §8, §9, §10

[4] = Postemergence herbicidal activity (% control) against dicot weeds; settings: post-emergence, 336 h; for activity at 4483.4 g/ha: read-out: Herbicidal activity (% control), postemergence, dicots, 4 lb./A., average, about two weeks after application; for activity at 2241.7 g/ha: read-out: Herbicidal activity (% control), postemergence, dicots, 2 lb./A., average, about two weeks after application; for activity at 11208.5 g/ha: read-out: Herbicidal activity (% control), postemergence, dicots, 10 lb./A., average, about two weeks after application

Row | Structure (SMILES) | activity at 4483.4 g/ha [1] | activity at 2241.7 g/ha [2] | activity at 4483.4 g/ha [2] | activity at 2241.7 g/ha [3] | activity at 4483.4 g/ha [3] | activity at 4483.4 g/ha [4] | activity at 2241.7 g/ha [1] | activity at 2241.7 g/ha [4] | activity at 11208.5 g/ha [1] | activity at 11208.5 g/ha [2] | activity at 11208.5 g/ha [3] | activity at 11208.5 g/ha [4]
1 | CC(=O)C(C)Oc1cc(Oc2ccc(C(F)(F)F)cc2Cl)ccc1[N+](=O)[O-] (stereo not drawn) [Example 32] | 100% | 81% | 86% | 100% | 86% | 100% |  |  |  |  |  | 
2 | O=[N+]([O-])c1ccc(Oc2ccc(C(F)(F)F)cc2Cl)cc1NCCO [Example 22] | 98% | 63% | 72% | 70% | 60% | 99% | 77% | 100% |  |  |  | 
3 | CN(CCO)c1cc(Oc2ccc(C(F)(F)F)cc2Cl)ccc1[N+](=O)[O-] [Example 43] | 48% | 99% | 0% | 61% | 2% | 47% | 100% | 80% |  |  |  | 
4 | O=[N+]([O-])c1ccc(Oc2ccc(C(F)(F)F)cc2Cl)cc1O [Example 10, 2-Chloro-α,α,α-trifluoro-p-tolyl-3-hydroxy-4-nitrophenylether] | 100% | 66% | 70% | 17% | 67% | 98% | 70% | 85% |  |  |  | 
5 | CCOc1cc(Oc2ccc(C(F)(F)F)cc2)ccc1[N+](=O)[O-] [Example 1] | 45% |  | 76% |  | 57% | 58% |  |  | 35% | 42% | 82% | 100%
6 | C=CCOc1cc(Oc2ccc(C(F)(F)F)cc2Cl)ccc1[N+](=O)[O-] [Example 12] | 96% | 72% | 86% | 99% | 77% | 100% | 93% | 100% |  |  |  | 
7 | Nc1cc(Oc2ccc(C(F)(F)F)cc2Cl)ccc1[N+](=O)[O-] [Example 27] | 98% | 74% | 76% | 99% | 82% | 100% | 90% | 100% |  |  |  | 
8 | CCOC(=O)COc1cc(Oc2ccc(C(F)(F)F)cc2Cl)ccc1[N+](=O)[O-] [Example 24] | 68% | 62% | 91% | 84% | 86% | 99% | 97% | 100% |  |  |  | 
9 | CC(Oc1cc(Oc2ccc(C(F)(F)F)cc2Cl)ccc1[N+](=O)[O-])C(=O)O (stereo not drawn) [Example 25, 2-Chloro-α,α,α-trifluoro-p-tolyl-3-(1-carboxyethoxy)-4-nitrophenyl ether] | 88% | 40% | 87% | 88% | 97% | 100% | 93% | 100% |  |  |  | 
10 | CC(=O)CCOc1cc(Oc2ccc(C(F)(F)F)cc2Cl)ccc1[N+](=O)[O-] [Example 31] | 99% | 68% | 74% | 68% | 61% | 100% | 69% | 100% |  |  |  | 
11 | CCCOc1cc(Oc2ccc(C(F)(F)F)cc2C#N)ccc1[N+](=O)[O-] [Example 8] | 57% | 52% | 61% | 35% | 48% | 80% | 46% | 66% | 82% | 81% | 85% | 100%
